Laboratory results from PMC5551389 (Nature, 2016).
pEC50: −log10 of the molar value.

Tests used:
HIV-1 = assay: microbe, parasite or virus in culture; assay type: cell-based, human immunodeficiency virus type 1
RSV A2 = assay: microbe, parasite or virus in culture; assay type: cell-based; conditions: human respiratory syncytial virus
[1] = system: human monocyte-derived macrophages
CHIV = assay: microbe, parasite or virus in culture; assay type: cell-based; conditions: Chikungunya virus, U2OS

CCC(CC)COC(=O)[C@H](C)N[P@](=O)(OC[C@H]1O[C@@](C#N)(c2ccc3c(N)ncnn23)[C@H](O)[C@@H]1O)Oc1ccccc1 [GS-5734] showed a pEC50 (HIV-1; Human immunodeficiency virus 1, read-out: Antiviral activity EC50) of less than 4.70, an EC90 (HIV-1; Human immunodeficiency virus 1, read-out: Antiviral activity EC90) greater than 20 µM and a pEC50 (RSV A2; HEp-2, read-out: Antiviral activity EC50) of 7.72. For the same compound, the EC90 (RSV A2; HEp-2, read-out: Antiviral activity EC90) was 0.051 µM, the “Intracellular NTP levels, fold higher than with Nuc” value [1] was “up to 30 fold” and the pEC50 (CHIV; read-out: Antiviral activity EC50) was less than 4.70. For the same compound, the EC90 (CHIV; read-out: Antiviral activity EC90) was greater than 20 µM.
